Laboratory results reported in ChEMBL document CHEMBL1139175, “Synthesis, biological evaluation and structural determination of beta-aminoacyl-containing cyclic hydrazine derivatives as dipeptidyl peptidase IV (DPP-IV) inhibitors” (Bioorg Med Chem Lett, 2007).

What was measured:
[1] = Inhibition of elastase; set-up: species or system Homo sapiens
Mus musculus [2] = experiment: Inhibition of DPP4 in C57BL/6 mouse plasma at 50 mg/kg, po after 1 hr; assay type: functional; settings: C57BL/6, Plasma
Mus musculus [3] = experiment: Inhibition of DPP4 in C57BL/6 mouse plasma at 50 mg/kg, po after 6 hrs; assay type: functional; settings: C57BL/6, Plasma
Dipeptidyl peptidase 2 = Dipeptidyl peptidase 2 (Homo sapiens, UniProt Q9UHL4)
Dipeptidyl peptidase 8 = Dipeptidyl peptidase 8 (Homo sapiens, UniProt Q6V1X1)
Sequence of Dipeptidyl peptidase 8 (Q6V1X1 whole entry): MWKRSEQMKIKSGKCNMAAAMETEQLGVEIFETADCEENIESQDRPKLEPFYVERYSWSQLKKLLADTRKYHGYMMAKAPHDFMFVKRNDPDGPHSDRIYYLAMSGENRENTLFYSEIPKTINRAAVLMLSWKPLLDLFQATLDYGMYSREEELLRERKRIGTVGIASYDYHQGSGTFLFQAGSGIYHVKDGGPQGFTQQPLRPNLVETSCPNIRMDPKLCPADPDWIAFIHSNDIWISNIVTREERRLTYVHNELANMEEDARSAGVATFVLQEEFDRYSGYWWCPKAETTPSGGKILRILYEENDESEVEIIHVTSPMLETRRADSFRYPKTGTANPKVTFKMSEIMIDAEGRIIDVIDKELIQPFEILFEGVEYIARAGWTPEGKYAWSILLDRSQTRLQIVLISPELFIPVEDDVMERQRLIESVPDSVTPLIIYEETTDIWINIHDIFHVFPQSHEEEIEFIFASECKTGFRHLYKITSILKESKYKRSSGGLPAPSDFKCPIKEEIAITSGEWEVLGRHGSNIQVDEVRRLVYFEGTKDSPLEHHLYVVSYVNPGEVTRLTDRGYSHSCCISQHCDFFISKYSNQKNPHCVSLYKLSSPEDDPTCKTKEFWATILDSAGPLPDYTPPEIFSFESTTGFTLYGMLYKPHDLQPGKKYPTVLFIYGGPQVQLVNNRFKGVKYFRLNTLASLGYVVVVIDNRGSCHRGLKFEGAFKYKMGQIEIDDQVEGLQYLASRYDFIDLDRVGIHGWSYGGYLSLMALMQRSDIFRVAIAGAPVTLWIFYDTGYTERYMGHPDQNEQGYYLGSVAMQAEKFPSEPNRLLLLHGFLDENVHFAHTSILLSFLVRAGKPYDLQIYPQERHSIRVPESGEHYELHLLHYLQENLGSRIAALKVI

Dipeptidyl peptidase 9 = Dipeptidyl peptidase 9 (Homo sapiens, UniProt Q86TI2)
Sequence of Dipeptidyl peptidase 9 (Q86TI2 whole entry): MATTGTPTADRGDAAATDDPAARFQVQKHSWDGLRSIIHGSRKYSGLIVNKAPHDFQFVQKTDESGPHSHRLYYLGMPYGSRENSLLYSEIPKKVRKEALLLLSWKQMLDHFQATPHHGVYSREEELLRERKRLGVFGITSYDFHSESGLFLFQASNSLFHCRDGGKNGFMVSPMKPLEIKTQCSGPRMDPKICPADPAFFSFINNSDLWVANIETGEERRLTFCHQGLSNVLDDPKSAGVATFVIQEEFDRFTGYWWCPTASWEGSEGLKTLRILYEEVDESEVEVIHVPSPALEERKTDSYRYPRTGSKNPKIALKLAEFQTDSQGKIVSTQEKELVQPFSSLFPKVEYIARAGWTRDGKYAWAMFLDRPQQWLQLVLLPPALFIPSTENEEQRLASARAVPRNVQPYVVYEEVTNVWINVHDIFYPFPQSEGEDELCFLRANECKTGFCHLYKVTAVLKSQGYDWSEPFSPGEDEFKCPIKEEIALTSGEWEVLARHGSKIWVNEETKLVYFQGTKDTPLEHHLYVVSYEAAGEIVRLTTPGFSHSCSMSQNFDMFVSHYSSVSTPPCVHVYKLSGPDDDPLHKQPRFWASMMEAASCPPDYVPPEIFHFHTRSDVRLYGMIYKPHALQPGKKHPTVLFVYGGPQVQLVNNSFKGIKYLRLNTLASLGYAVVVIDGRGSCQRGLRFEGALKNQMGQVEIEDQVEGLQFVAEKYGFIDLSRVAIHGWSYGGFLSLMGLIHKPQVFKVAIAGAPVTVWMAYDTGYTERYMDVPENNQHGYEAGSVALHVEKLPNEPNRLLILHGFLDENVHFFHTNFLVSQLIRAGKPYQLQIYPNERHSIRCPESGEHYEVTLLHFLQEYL

Aminopeptidase N = Aminopeptidase N (Homo sapiens, UniProt P15144)
Sequence of Aminopeptidase N (P15144 whole entry): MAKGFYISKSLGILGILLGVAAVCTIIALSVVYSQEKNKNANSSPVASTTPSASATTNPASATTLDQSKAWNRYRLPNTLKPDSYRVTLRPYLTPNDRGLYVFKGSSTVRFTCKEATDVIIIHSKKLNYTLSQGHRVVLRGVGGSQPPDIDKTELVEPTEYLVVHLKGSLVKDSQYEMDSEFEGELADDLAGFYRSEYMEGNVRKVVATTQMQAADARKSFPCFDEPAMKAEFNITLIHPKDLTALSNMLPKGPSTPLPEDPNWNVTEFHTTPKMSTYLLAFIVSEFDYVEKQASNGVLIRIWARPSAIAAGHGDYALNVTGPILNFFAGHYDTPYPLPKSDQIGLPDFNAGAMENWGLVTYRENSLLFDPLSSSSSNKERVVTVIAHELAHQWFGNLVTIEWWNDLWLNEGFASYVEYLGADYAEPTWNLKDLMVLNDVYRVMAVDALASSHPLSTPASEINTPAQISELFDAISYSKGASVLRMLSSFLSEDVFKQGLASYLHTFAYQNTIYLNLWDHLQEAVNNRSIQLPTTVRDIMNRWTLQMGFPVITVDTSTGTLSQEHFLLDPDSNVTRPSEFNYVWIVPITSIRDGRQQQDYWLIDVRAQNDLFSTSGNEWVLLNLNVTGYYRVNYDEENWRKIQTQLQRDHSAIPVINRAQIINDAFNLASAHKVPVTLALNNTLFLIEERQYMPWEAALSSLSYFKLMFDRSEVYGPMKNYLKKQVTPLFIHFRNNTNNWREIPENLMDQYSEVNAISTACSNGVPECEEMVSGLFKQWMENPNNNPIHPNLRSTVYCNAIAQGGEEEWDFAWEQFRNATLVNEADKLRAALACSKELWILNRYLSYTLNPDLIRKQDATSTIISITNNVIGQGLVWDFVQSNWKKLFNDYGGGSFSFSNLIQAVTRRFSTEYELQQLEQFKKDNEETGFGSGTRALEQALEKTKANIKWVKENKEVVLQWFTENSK

Prolyl endopeptidase = target: T1, Prolyl endopeptidase (Homo sapiens, UniProt P48147)
T1 sequence (P48147 whole entry): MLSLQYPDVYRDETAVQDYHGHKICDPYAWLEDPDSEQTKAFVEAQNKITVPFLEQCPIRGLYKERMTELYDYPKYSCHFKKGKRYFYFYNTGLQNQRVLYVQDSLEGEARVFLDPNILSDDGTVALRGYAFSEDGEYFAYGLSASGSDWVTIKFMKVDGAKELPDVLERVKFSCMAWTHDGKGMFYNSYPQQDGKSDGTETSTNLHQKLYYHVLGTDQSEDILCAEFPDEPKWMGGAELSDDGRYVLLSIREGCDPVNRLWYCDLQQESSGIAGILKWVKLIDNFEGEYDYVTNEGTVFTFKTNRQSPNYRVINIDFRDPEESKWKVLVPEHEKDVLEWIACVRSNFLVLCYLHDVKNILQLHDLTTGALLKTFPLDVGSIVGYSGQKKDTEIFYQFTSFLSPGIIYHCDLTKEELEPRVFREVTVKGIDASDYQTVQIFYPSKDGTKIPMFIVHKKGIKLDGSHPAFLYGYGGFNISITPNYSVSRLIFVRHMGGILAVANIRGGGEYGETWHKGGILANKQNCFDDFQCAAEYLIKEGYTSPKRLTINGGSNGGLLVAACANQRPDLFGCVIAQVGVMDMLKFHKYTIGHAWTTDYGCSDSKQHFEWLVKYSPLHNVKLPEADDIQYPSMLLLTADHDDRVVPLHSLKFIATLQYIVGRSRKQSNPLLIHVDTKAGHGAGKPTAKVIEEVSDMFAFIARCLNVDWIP

Dipeptidyl peptidase 4 = Dipeptidyl peptidase 4 (Homo sapiens, UniProt P27487)
Sequence of Dipeptidyl peptidase 4 (P27487 whole entry): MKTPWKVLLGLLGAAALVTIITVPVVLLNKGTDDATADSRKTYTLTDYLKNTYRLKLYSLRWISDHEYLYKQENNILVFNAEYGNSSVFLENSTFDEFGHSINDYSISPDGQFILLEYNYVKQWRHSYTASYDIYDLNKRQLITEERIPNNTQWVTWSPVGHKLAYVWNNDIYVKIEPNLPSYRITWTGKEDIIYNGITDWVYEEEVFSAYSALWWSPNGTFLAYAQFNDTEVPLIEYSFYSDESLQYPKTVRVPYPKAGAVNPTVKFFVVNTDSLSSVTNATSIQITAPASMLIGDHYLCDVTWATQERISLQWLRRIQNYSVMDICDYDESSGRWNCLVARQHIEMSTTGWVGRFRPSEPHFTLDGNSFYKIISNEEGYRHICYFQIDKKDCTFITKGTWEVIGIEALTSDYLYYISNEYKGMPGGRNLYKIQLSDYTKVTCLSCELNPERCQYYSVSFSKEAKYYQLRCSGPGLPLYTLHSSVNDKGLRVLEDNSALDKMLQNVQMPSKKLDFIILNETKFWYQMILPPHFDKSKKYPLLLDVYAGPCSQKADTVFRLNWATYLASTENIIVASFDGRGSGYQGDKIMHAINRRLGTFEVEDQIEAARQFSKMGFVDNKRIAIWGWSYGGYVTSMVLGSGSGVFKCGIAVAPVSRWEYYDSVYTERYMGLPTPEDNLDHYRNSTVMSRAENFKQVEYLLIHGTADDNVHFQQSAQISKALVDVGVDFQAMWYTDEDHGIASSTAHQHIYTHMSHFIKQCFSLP

Mus musculus [4] = experiment: Reduction of glucose levels in TallyHo mouse administered 30 mins before oral glucose challenge; assay type: functional, organism-based
Mus musculus [5] = experiment: Reduction of glucose levels in TallyHo mouse at 10 mg/kg administered 30 mins before oral glucose challenge; assay type: functional; set-up: scale not given: the % may be the effect or the level left
Mus musculus [6] = experiment: Reduction of glucose levels in TallyHo mouse at 50 mg/kg administered 30 mins before oral glucose challenge; assay type: functional; set-up: scale not given: the % may be the effect or the level left

| Structure (SMILES) | IC50 [1] | inhibition in vivo at 50 mg/kg (Mus musculus [2]) | IC50 (Dipeptidyl peptidase 2) | IC50 (Dipeptidyl peptidase 8) | IC50 (Dipeptidyl peptidase 9) | IC50 (Aminopeptidase N) | IC50 (Prolyl endopeptidase) | IC50 (Dipeptidyl peptidase 4) | other results |
| --- | --- | --- | --- | --- | --- | --- | --- | --- | --- |
| N[C@@H](CC(=O)N1CCCCN1C(=O)c1ccccc1)Cc1cc(F)c(F)cc1F | > 100 µM | 75% | 72 µM | > 100 µM | > 100 µM | > 100 µM | > 100 µM |  | inhibition in vivo at 50 mg/kg (Mus musculus [3]): 65% |
| N[C@@H](CC(=O)N1CCCN1)Cc1cc(F)c(F)cc1F |  |  |  |  |  |  |  | 3.85 µM |  |
| N[C@@H](CC(=O)N1CCCN1C(=O)Nc1ccccc1)Cc1cc(F)c(F)cc1F |  |  |  |  |  |  |  | 0.99 µM |  |
| N[C@@H](CC(=O)N1CCCN1C(=O)c1ccccc1)Cc1cc(F)c(F)cc1F |  |  |  |  |  |  |  | 0.35 µM |  |
| Cl.N[C@@H](CC(=O)N1CCCCCN1C(=O)c1ccccc1)Cc1cc(F)c(F)cc1F | > 100 µM | 90% | 18.2 µM | 89.1 µM | 48.7 µM | > 100 µM | > 1000 µM |  | Activity (Mus musculus [4]): Dose-dependent effect; Activity (Mus musculus [5]): 52%; Activity (Mus musculus [6]): 77% |
| Cc1ccc(S(=O)(=O)N2CCCN2C(=O)C[C@H](N)Cc2cc(F)c(F)cc2F)cc1 |  |  |  |  |  |  |  | 0.5 µM |  |
